Paper PMC3395220 (Journal of Medicinal Chemistry, 2012)

Tests used:
[1] = tested on: MOLT-4; type: cell-based, human; settings: 10^Δ2-x, relative to compound 2
[2] = tested on: HCT-15; type: cell-based, human; settings: 10^Δ2-x, relative to compound 2
[3] = tested on: SW-620; type: cell-based, human; settings: 10^Δ2-x, relative to compound 2
[4] = tested on: SF-295; type: cell-based, human; settings: 10^Δ2-x, relative to compound 2
[5] = tested on: LOX IMVI; type: cell-based, human; settings: 10^Δ2-x, relative to compound 2
[6] = tested on: MDA-MB-435; type: cell-based, human; settings: 10^Δ2-x, relative to compound 2
[7] = tested on: SK-MEL-5; type: cell-based, human; settings: 10^Δ2-x, relative to compound 2
[8] = tested on: NCI/ADR-RES; experiment: cells; type: cell-based, human
[9] = tested on: SK-OV-3; type: cell-based, human; settings: 10^Δ2-x, relative to compound 2
[10] = tested on: TK-10; type: cell-based, human; settings: 10^Δ2-x, relative to compound 2
[11] = tested on: UO-31; type: cell-based, human; settings: 10^Δ2-x, relative to compound 2
[12] = tested on: DU-145; type: cell-based, human; settings: 10^Δ2-x, relative to compound 2
[13] = tested on: MDA-MB-468; type: cell-based, human; settings: 10^Δ2-x, relative to compound 2
[14] = tested on: COLO-205 colon cancer cells; experiment: Subcutaneous COLO-205 colon xenograft; type: in vivo, athymic nu/nu mice; settings: iv q2dx10 at 10 mg/Kg and q3dx10 at 20 mg/Kg
[15] = Tolerability during xenograft treatment; type: in vivo, athymic nu/nu mice; settings: iv q2dx10 10 mg/Kg and q3dx10 20 mg/Kg, colon and melanoma models
[16] = Assays of toxicity, maximum tolerated dose; settings: in vivo

Question: With `CO[C@@H]([C@@H]1Cc2cc3cc(O[C@H]4C[C@@H](O[C@H]5C[C@@H](O)[C@H](O)[C@@H](C)O5)[C@H](O)[C@@H](C)O4)c(C)c(O)c3c(O)c2C(=O)[C@H]1O[C@H]1C[C@@H](O[C@H]2C[C@@H](O[C@H]3C[C@H](O)[C@H](O)[C@@H](C)O3)[C@H](O)[C@@H](C)O2)[C@H](O)[C@@H](C)O1)[C@@H](O)C(C)=O` [Compound 9, demycarosyl-3D-β-D-digitoxosyl-mithramycin SK] as the compound, how does the activity improvement factor [1] read?
Answer: Its activity improvement factor is 2.43.

Question: What about the activity improvement factor [2] of the same compound?
Answer: Its activity improvement factor is 1.00.

Question: What about the activity improvement factor [3] of the same compound?
Answer: Its activity improvement factor is 1.30.

Question: What about the activity improvement factor [4] of the same compound?
Answer: Its activity improvement factor is 2.00.

Question: What about the activity improvement factor [5] of the same compound?
Answer: Its activity improvement factor is 1.23.

Question: What about the activity improvement factor [6] of the same compound?
Answer: The activity improvement factor was 1.82.

Question: What about the activity improvement factor [7] of the same compound?
Answer: The activity improvement factor was 1.62.

Question: What about the activity improvement factor ([8]; 10^Δ2-x, relative to compound 2) of the same compound?
Answer: The activity improvement factor was 0.15.

Question: And the GI50 ([8]; Homo sapiens)?
Answer: The GI50 was greater than 10 µM.

Question: What about the activity improvement factor [9] of the same compound?
Answer: The activity improvement factor was 3.85.

Question: And the activity improvement factor [10]?
Answer: The activity improvement factor was 2.45.

Question: And the activity improvement factor [11]?
Answer: The activity improvement factor was 2.40.

Question: And the activity improvement factor [12]?
Answer: Its activity improvement factor is 4.47.

Question: And the activity improvement factor [13]?
Answer: Its activity improvement factor is 1.48.

Question: What about the “tumor growth of COLO-205 colon xenografts” value [14] of the same compound?
Answer: The value was “reduced notably”.

Question: And the “tolerability in xenograft-bearing mice” value [15]?
Answer: Its value is “well tolerated and no signs of toxicity or deaths”.

Question: And the “fold less toxicity than parental compound 1, single treatment” value [16]?
Answer: The value was “about 32 fold”.
